Source: US20170037028A1 (BAYER PHARMA AKTIENGESELLSCHAFT, priority 2013, published 2017)
Where two headings read alike, the source gives them in different places.

Target: T1, GLUT1 (Homo sapiens, UniProt P11166)
T1 sequence (P11166 1-492): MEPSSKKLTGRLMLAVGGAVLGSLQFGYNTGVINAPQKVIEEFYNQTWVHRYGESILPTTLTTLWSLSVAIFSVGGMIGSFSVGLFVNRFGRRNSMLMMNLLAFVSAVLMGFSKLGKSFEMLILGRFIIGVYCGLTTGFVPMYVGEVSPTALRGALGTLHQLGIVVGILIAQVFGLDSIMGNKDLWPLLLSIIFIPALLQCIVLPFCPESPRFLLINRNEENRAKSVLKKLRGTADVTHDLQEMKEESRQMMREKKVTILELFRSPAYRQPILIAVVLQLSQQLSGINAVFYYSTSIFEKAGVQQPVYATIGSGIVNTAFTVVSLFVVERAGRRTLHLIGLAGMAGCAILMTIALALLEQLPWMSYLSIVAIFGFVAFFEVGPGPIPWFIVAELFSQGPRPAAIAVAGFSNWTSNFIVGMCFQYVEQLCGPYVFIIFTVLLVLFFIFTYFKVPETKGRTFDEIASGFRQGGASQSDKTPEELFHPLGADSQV
Test: Indirect measurement of GLUT1 activity by quantification of intracellular ATP levels (glucose induced ATP increase)
Format: cell-based
Set-up: endogenous in cells; host or cells: DLD1 or CHO-K1
Conditions: read-out: IC50 regarding glucose induced ATP increase (GLUT1 inhibition)
Procedure, shortened: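 DLD1 or CHO-K1 cells were starved overnight in glucose-free medium with 1% FCS, then combined with an oxidative phosphorylation inhibitor. GLUT1 activity was read as glucose-induced ATP increase, GLUT2 as fructose-induced. Intracellular ATP was quantified by CellTiter-Glo luminescence.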

| Compound | IC50 [nM] | IC50 (DLD1 cells, 0.1 mM glucose, 1 μM Rotenone, 15 min, CellTiter-Glo ATP readout, IC50 values standardized to cytochalasin B IC50 values) [nM] |
| --- | --- | --- |
| Cc1c(NC(=O)c2cc(C(N)=O)nc3cc(F)c(Br)cc23)c(C(F)(F)F)nn1Cc1ccc(C#N)cc1 [Example 1611] | 0.8 | – |
| Cc1nn(Cc2ccc(CC#N)cc2)c(C)c1NC(=O)c1cc(C(N)=O)nc2cccc(F)c12 [Example 1612] | 2.4 | – |
| Cc1nn(Cc2ccc(CC#N)cc2)c(C)c1NC(=O)c1cc(C(N)=O)nc2cc(F)ccc12 [Example 1613] | 0.7 | – |
| Cc1nn(Cc2ccc(CC#N)cc2)c(C)c1NC(=O)c1cc(C(N)=O)nc2ccccc12 [Example 1614] | 0.8 | – |
| Cc1c(NC(=O)c2cc(C(N)=O)nc3cc(F)ccc23)c(C(F)(F)F)nn1Cc1ccc(C2CCC2)cc1 [Example 1616] | 67.4 | – |
| Cc1c(NC(=O)c2cc(C(N)=O)nc3ccccc23)c(C(F)(F)F)nn1Cc1ccc(C2CCC2)cc1 [Example 1617] | 54.9 | – |
| Cc1c(NC(=O)c2cc(C(N)=O)nc3cccc(F)c23)c(C(F)(F)F)nn1Cc1ccc(C2CCC2)cc1 [Example 1618] | 22.3 | – |
| CC(=O)c1cccc(Cn2nc(C(F)(F)F)c(NC(=O)c3cc(C(N)=O)nc4cc(F)ccc34)c2C)c1 [Example 1619] | 40.1 | – |
| CC(=O)c1cccc(Cn2nc(C(F)(F)F)c(NC(=O)c3cc(C(N)=O)nc4cccc(F)c34)c2C)c1 [Example 1620] | 96.3 | – |
| CC(=O)c1cccc(Cn2nc(C(F)(F)F)c(NC(=O)c3cc(C(N)=O)nc4cc(F)c(Cl)cc34)c2C)c1 [Example 1621] | 15.3 | – |
| CC(=O)c1cccc(Cn2nc(C(F)(F)F)c(NC(=O)c3cc(C(N)=O)nc4ccccc34)c2C)c1 [Example 1622] | 50.1 | – |
| CC(=O)c1cccc(Cn2nc(C)c(NC(=O)c3cc(C(N)=O)nc4cc(F)c(Cl)cc34)c2C)c1 [Example 1623] | 0.8 | – |
| CC(=O)c1cccc(Cn2nc(C)c(NC(=O)c3cc(C(N)=O)nc4cccc(F)c34)c2C)c1 [Example 1624] | 18.7 | – |
| CC(=O)c1cccc(Cn2nc(C)c(NC(=O)c3cc(C(N)=O)nc4cc(F)ccc34)c2C)c1 [Example 1625] | 40.9 | – |
| CC(=O)c1cccc(Cn2nc(C)c(NC(=O)c3cc(C(N)=O)nc4ccccc34)c2C)c1 [Example 1626] | 107 | – |
| Cc1c(NC(=O)c2cc(C(N)=O)nc3cc(F)ccc23)c(C(F)(F)F)nn1Cc1c(F)cccc1F [Example 1627] | 30.5 | – |
| Cc1c(NC(=O)c2cc(C(N)=O)nc3ccccc23)c(C(F)(F)F)nn1Cc1c(F)cccc1F [Example 1628] | 15.3 | – |
| Cc1c(NC(=O)c2cc(C(N)=O)nc3cccc(F)c23)c(C(F)(F)F)nn1Cc1c(F)cccc1F [Example 1629] | 16.2 | – |
| Cc1c(NC(=O)c2cc(C(N)=O)nc3cc(F)c(Cl)cc23)c(C(F)(F)F)nn1Cc1c(F)cccc1F [Example 1630] | 4 | – |
| Cc1nn(Cc2c(F)cccc2F)c(C)c1NC(=O)c1cc(C(N)=O)nc2cc(F)ccc12 [Example 1631] | 6.5 | – |
| Cc1nn(Cc2c(F)cccc2F)c(C)c1NC(=O)c1cc(C(N)=O)nc2ccccc12 [Example 1632] | 10 | – |

| Compound | IC50 [nM] | IC50 (DLD1 cells, 0.1 mM glucose, 1 μM Rotenone, 15 min, CellTiter-Glo ATP readout, IC50 values standardized to cytochalasin B IC50 values) [nM] |
| --- | --- | --- |
| Cc1nn(Cc2c(F)cccc2F)c(C)c1NC(=O)c1cc(C(N)=O)nc2cccc(F)c12 [Example 1633] | 4.6 | – |
| Cc1nn(Cc2c(F)cccc2F)c(C)c1NC(=O)c1cc(C(N)=O)nc2cc(F)c(Cl)cc12 [Example 1634] | 2.2 | – |
| Cc1c(NC(=O)c2cc(C(N)=O)nc3ccccc23)c(C(F)(F)F)nn1Cc1cccc(S(C)(=O)=O)c1 [Example 1636] | 292 | – |
| Cc1c(NC(=O)c2cc(C(N)=O)nc3cc(F)ccc23)c(C(F)(F)F)nn1Cc1cccc(S(C)(=O)=O)c1 [Example 1637] | 288 | – |
| Cc1c(NC(=O)c2cc(C(N)=O)nc3cc(F)c(Cl)cc23)c(C(F)(F)F)nn1Cc1cccc(S(C)(=O)=O)c1 [Example 1638] | 61.3 | – |
| Cc1c(NC(=O)c2cc(C(N)=O)nc3cccc(F)c23)c(C(F)(F)F)nn1Cc1cccc(S(C)(=O)=O)c1 [Example 1639] | 273 | – |
| Cc1nn(Cc2cccc(S(C)(=O)=O)c2)c(C)c1NC(=O)c1cc(C(N)=O)nc2cc(F)ccc12 [Example 1640] | 277 | – |
| Cc1nn(Cc2cccc(S(C)(=O)=O)c2)c(C)c1NC(=O)c1cc(C(N)=O)nc2cccc(F)c12 [Example 1641] | 168 | – |
| Cc1nn(Cc2cccc(S(C)(=O)=O)c2)c(C)c1NC(=O)c1cc(C(N)=O)nc2ccccc12 [Example 1642] | 289 | – |
| Cc1nn(Cc2cccc(S(C)(=O)=O)c2)c(C)c1NC(=O)c1cc(C(N)=O)nc2cc(F)c(Cl)cc12 [Example 1643] | 34.4 | – |
| COc1cc(C#N)ccc1Cn1nc(C(F)(F)F)c(NC(=O)c2cc(C(N)=O)nc3cc(F)ccc23)c1C [Example 1646] | 2.3 | – |
| COc1cc(C#N)ccc1Cn1nc(C(F)(F)F)c(NC(=O)c2cc(C(N)=O)nc3cccc(F)c23)c1C [Example 1647] | 2.7 | – |
| COc1cc(C#N)ccc1Cn1nc(C(F)(F)F)c(NC(=O)c2cc(C(N)=O)nc3cc(F)c(Cl)cc23)c1C [Example 1648] | 2.3 | – |
| COc1cc(C#N)ccc1Cn1nc(C)c(NC(=O)c2cc(C(N)=O)nc3cc(F)ccc23)c1C [Example 1649] | 67.2 | – |
| COc1cc(C#N)ccc1Cn1nc(C)c(NC(=O)c2cc(C(N)=O)nc3cccc(F)c23)c1C [Example 1650] | 10.3 | – |
| COc1cc(C#N)ccc1Cn1nc(C)c(NC(=O)c2cc(C(N)=O)nc3cc(F)c(Cl)cc23)c1C [Example 1651] | 3.2 | – |
| Cc1c(NC(=O)c2cc(C(N)=O)nc3ccccc23)c(C(F)(F)F)nn1Cc1cc(F)ccc1C#N [Example 1652] | 112 | – |
| Cc1c(NC(=O)c2cc(C(N)=O)nc3cc(F)ccc23)c(C(F)(F)F)nn1Cc1cc(F)ccc1C#N [Example 1653] | 266 | – |
| Cc1c(NC(=O)c2cc(C(N)=O)nc3cccc(F)c23)c(C(F)(F)F)nn1Cc1cc(F)ccc1C#N [Example 1654] | 221 | – |
| Cc1c(NC(=O)c2cc(C(N)=O)nc3cc(F)c(Cl)cc23)c(C(F)(F)F)nn1Cc1cc(F)ccc1C#N [Example 1655] | 238 | – |
| Cc1c(NC(=O)c2cc(C(N)=O)nc3cccc(F)c23)c(C(F)(F)F)nn1Cc1ccc(F)cc1C#N [Example 1656] | 12.5 | – |

| Compound | IC50 [nM] | IC50 (DLD1 cells, 0.1 mM glucose, 1 μM Rotenone, 15 min, CellTiter-Glo ATP readout, IC50 values standardized to cytochalasin B IC50 values) [nM] |
| --- | --- | --- |
| Cc1c(NC(=O)c2cc(C(N)=O)nc3cc(F)c(Cl)cc23)c(C(F)(F)F)nn1Cc1ccc(F)cc1C#N [Example 1657] | 3.4 | – |
| Cc1c(NC(=O)c2cc(C(N)=O)nc3cc(F)ccc23)c(C(F)(F)F)nn1Cc1ccc(F)cc1C#N [Example 1658] | 3.2 | – |
| Cc1c(NC(=O)c2cc(C(N)=O)nc3ccccc23)c(C(F)(F)F)nn1Cc1ccc(F)cc1C#N [Example 1659] | 4.7 | – |
| Cc1nn(Cc2ccc(F)cc2C#N)c(C)c1NC(=O)c1cc(C(N)=O)nc2cc(F)ccc12 [Example 1660] | 1.3 | – |
| Cc1nn(Cc2ccc(F)cc2C#N)c(C)c1NC(=O)c1cc(C(N)=O)nc2ccccc12 [Example 1661] | 3.4 | – |
| Cc1nn(Cc2ccc(F)cc2C#N)c(C)c1NC(=O)c1cc(C(N)=O)nc2cccc(F)c12 [Example 1662] | 4 | – |
| Cc1nn(Cc2ccc(F)cc2C#N)c(C)c1NC(=O)c1cc(C(N)=O)nc2cc(F)c(Cl)cc12 [Example 1663] | 1.1 | – |
| COc1cc(Cn2nc(C(F)(F)F)c(NC(=O)c3cc(C(N)=O)nc4cc(F)ccc34)c2C)ccc1C#N [Example 1664] | 2.6 | – |
| COc1cc(Cn2nc(C(F)(F)F)c(NC(=O)c3cc(C(N)=O)nc4cccc(F)c34)c2C)ccc1C#N [Example 1665] | 3.8 | – |
| COc1cc(Cn2nc(C(F)(F)F)c(NC(=O)c3cc(C(N)=O)nc4cc(F)c(Cl)cc34)c2C)ccc1C#N [Example 1666] | 0.8 | – |
| Cc1c(NC(=O)c2cc(C(N)=O)nc3ccccc23)c(C(F)(F)F)nn1Cc1ccc(C(C)(C)C#N)cc1 [Example 1667] | 46.6 | – |
| Cc1c(NC(=O)c2cc(C(N)=O)nc3cc(F)ccc23)c(C(F)(F)F)nn1Cc1ccc(C#N)cc1O [Example 1668] | 23.6 | – |
| Cc1c(NC(=O)c2cc(C(N)=O)nc3cc(F)ccc23)c(C(F)(F)F)nn1Cc1cc(C#N)no1 [Example 1669] | – | 88.8 |
| CCOC(=O)c1cc(Cn2nc(C)c(NC(=O)c3cc(C(N)=O)nc4cc(F)ccc34)c2C)on1 [Example 1670] | 17.1 | – |
| Cc1c(NC(=O)c2cc(C(N)=O)nc3ccccc23)c(C(F)(F)F)nn1CC(=O)Nc1ccccc1O [Example 1671] | 149 | – |
| Cc1c(NC(=O)c2cc(C(N)=O)nc3ccccc23)c(C(F)(F)F)nn1Cc1cc(C#N)no1 [Example 1672] | 151 | – |
| Cc1c(NC(=O)c2cc(C(N)=O)nc3cc(F)c(Cl)cc23)c(C(F)(F)F)nn1Cc1cc(C#N)no1 [Example 1673] | 56.1 | – |
| Cc1c(NC(=O)c2cc(C(N)=O)nc3cc(F)ccc23)c(C(F)(F)F)nn1Cc1csc(C#N)n1 [Example 1674] | 21 | – |
| Cc1c(NC(=O)c2cc(C(N)=O)nc3cc(F)c(Cl)cc23)c(C(F)(F)F)nn1Cc1cc(CN2CCOCC2)on1 [Example 1676] | 81.8 | – |
| CCOC(=O)c1cc(Cn2nc(C(F)(F)F)c(NC(=O)c3cc(C(N)=O)nc4cc(F)ccc34)c2C)on1 [Example 1677] | 353 | – |
